For the test, the target named is SARS2 coronavirus 3CL protease (Severe acute respiratory syndrome coronavirus 2, UniProt P0DTD1). Briefly: biochemical. To be noted: 5 nM enzyme, 30 min pre-incubation with compound, 15 μM peptide substrate, 4 h at room temperature; read-out: FRET Potency (nM); IC50 values in the SARS2 3CLPro FRET assay.
In the case of `C[C@@H]1C[C@@H](C[C@H](NC(=O)c2cc(Cl)ccc2NC(=O)CCC(F)(F)F)C(=O)C(=O)NCCO)C(=O)N1` [Example 117, 5-chloro-N-[(1S)-3-(2-hydroxyethylamino)-1-[[(3S,5R)-5-methyl-2-oxo-pyrrolidin-3-yl]methyl]-2,3-dioxo-propyl]-2-(4,4,4-trifluorobutanoylamino) benzamide], the IC50 turned out to be 9.3 nM.
To `CNC(=O)C(=O)[C@H](C[C@@H]1C[C@@H](C)NC1=O)NC(=O)c1cc(Cl)ncc1NC(=O)OC` [Example 118] belongs 23.9 nM; to `CNC(=O)C(=O)[C@H](C[C@@H]1C[C@@H](C)NC1=O)NC(=O)c1cc(Cl)cnc1NC(=O)OC` [Example 119, methyl N-[5-chloro-3-[[(1S)-3-(methylamino)-1-[[(3S,5R)-5-methyl-2-oxo-pyrrolidin-3-yl]methyl]-2,3-dioxo-propyl]carbamoyl]-2-pyridyl]carbamate], 5.6 nM.
As to `CNC(=O)C(=O)[C@H](C[C@@H]1C[C@@H](C)NC1=O)NC(=O)c1cc(F)c(F)cc1NC(=O)OC` [Example 120, methyl N-[4,5-difluoro-2-[[(1S)-3-(methylamino)-1-[[(3S,5R)-5-methyl-2-oxo-pyrrolidin-3-yl]methyl]-2,3-dioxo-propyl]carbamoyl]phenyl] carbamate], the IC50 worked out at 11.1 nM.
With `CNC(=O)C(=O)[C@H](C[C@@H]1C[C@@H](C)NC1=O)NC(=O)c1cc(F)ccc1NC(=O)OC1CC1` [Example 121, cyclopropyl N-[4-fluoro-2-[[(1S)-3-(methylamino)-1-[[(3S,5R)-5-methyl-2-oxo-pyrrolidin-3-yl]methyl]-2,3-dioxo-propyl]carbamoyl]phenyl] carbamate] the figure was 10.9 nM.
With `CNC(=O)C(=O)[C@H](C[C@@H]1C[C@@H](C)NC1=O)NC(=O)c1cc(Cl)ccc1NC(=O)C1CC1` [Example 122] the figure was 8.1 nM; with `COC(=O)Nc1ccc(Cl)cc1C(=O)N[C@@H](C[C@@H]1CCNC1=O)C(=O)C(=O)NC1CC1` [Example 123], 7.3 nM; with `[2H]C([2H])([2H])OC(=O)Nc1ccc(Cl)cc1C(=O)N[C@@H](C[C@@H]1CCNC1=O)C(=O)C(=O)NC1CC1` [Example 124, trideuteriomethyl N-[4-chloro-2-[[(1S)-3-(cyclopropylamino)-2,3-dioxo-1-[[(3S)-2-oxopyrrolidin-3-yl]methyl]propyl]carbamoyl]phenyl]carbamate], 8.2 nM.
With `CNC(=O)C(=O)[C@H](C[C@@H]1C[C@@H](C)NC1=O)NC(=O)c1cc(Cl)ccc1NC(=O)C(C)C` [Example 125, 5-chloro-N-[(1S)-3-(methylamino)-1-[[(3S,5R)-5-methyl-2-oxo-pyrrolidin-3-yl]methyl]-2,3-dioxo-propyl]-2-(2-methylpropanoylamino) benzamide] the figure was 5.6 nM; with `CNC(=O)C(=O)[C@H](C[C@@H]1CCNC1=O)NC(=O)c1cc(Cl)ccc1NC(=O)C(C)(C)C` [Example 126, 5-chloro-2-(2,2-dimethylpropanoylamino)-N-[(1S)-3-(methylamino)-2,3-dioxo-1-[[(3S)-2-oxopyrrolidin-3-yl]methyl]propyl]benzamide], 3.8 nM; with `CNC(=O)C(=O)[C@H](C[C@@H]1CCNC1=O)NC(=O)c1cc(F)c(F)cc1NC(=O)OC1CC1` [Example 127, cyclopropyl N-[4,5-difluoro-2-[[(1S)-3-(methylamino)-2,3-dioxo-1-[[(3S)-2-oxopyrrolidin-3-yl]methyl]propyl]carbamoyl]phenyl]carbamate], 7.9 nM.
With `CNC(=O)C(=O)[C@H](C[C@@H]1CCNC1=O)NC(=O)c1cc(Cl)ccc1NC(=O)OC(C)C` [Example 128, isopropyl N-[4-chloro-2-[[(1S)-3-(methylamino)-2,3-dioxo-1-[[(3S)-2-oxopyrrolidin-3-yl]methyl]propyl]carbamoyl]phenyl]carbamate], the IC50 amounted to 7.2 nM.
In the case of `CCOC(=O)Nc1ccc(Cl)cc1C(=O)N[C@@H](C[C@@H]1C[C@@H](C)NC1=O)C(=O)C(=O)NC` [Example 129, ethyl N-[4-chloro-2-[[(1S)-3-(methylamino)-1-[[(3S,5R)-5-methyl-2-oxo-pyrrolidin-3-yl]methyl]-2,3-dioxo-propyl]carbamoyl]phenyl] carbamate], the IC50 is 5.9 nM.
With `CNC(=O)C(=O)[C@H](C[C@@H]1C[C@@H](C)NC1=O)NC(=O)c1cc(C(F)F)ccc1NC(=O)OC` [Example 130, methyl N-[4-(difluoromethyl)-2-[[(1S)-3-(methylamino)-1-[[(3S,5R)-5-methyl-2-oxo-pyrrolidin-3-yl]methyl]-2,3-dioxo-propyl]carbamoyl]phenyl] carbamate] the figure was 20.7 nM; with `CNC(=O)C(=O)[C@H](C[C@@H]1C[C@@H](C)NC1=O)NC(=O)c1cc(C#N)ccc1NC(=O)OC1CC1` [Example 131, cyclopropyl N-[4-cyano-2-[[(1S)-3-(methylamino)-1-[[(3S,5R)-5-methyl-2-oxo-pyrrolidin-3-yl]methyl]-2,3-dioxo-propyl]carbamoyl]phenyl] carbamate], 36.5 nM; with `CNC(=O)C(=O)[C@H](C[C@@H]1C[C@@H](C)NC1=O)NC(=O)c1cc(Cl)c(F)cc1NC(=O)OC` [Example 132, methyl N-[4-chloro-5-fluoro-2-[[(1S)-3-(methylamino)-1-[[(3S,5R)-5-methyl-2-oxo-pyrrolidin-3-yl]methyl]-2,3-dioxo-propyl]carbamoyl]phenyl] carbamate], 13.8 nM.
To `CNC(=O)C(=O)[C@H](C[C@@H]1C[C@@H](C)NC1=O)NC(=O)c1cc(Cl)cc(F)c1NC(=O)OC` [Example 133, methyl N-[4-chloro-2-fluoro-6-[[(1S)-3-(methylamino)-1-[[(3S,5R)-5-methyl-2-oxo-pyrrolidin-3-yl]methyl]-2,3-dioxo-propyl]carbamoyl]phenyl] carbamate] belongs 9.9 nM; to `CNC(=O)C(=O)[C@H](C[C@@H]1C[C@@H](C)NC1=O)NC(=O)c1cc(F)c(Cl)cc1NC(=O)OC` [Example 134, methyl N-[5-chloro-4-fluoro-2-[(1S)-3-(methylamino)-1-[[(3S,5R)-5-methyl-2-oxo-pyrrolidin-3-yl]methyl]-2,3-dioxo-propyl]carbamoyl]phenyl] carbamate], 28.2 nM.
To `CNC(=O)C(=O)[C@H](C[C@@H]1C[C@@H](C)NC1=O)NC(=O)c1cc(Cl)ccc1NC(=O)C1COC1` [Example 135] belongs 3 nM.
Regarding `CNC(=O)C(=O)[C@H](C[C@@H]1CCNC1=O)NC(=O)c1cc(Cl)ccc1NC(=O)OCC1CC1` [Example 136, cyclopropylmethyl N-[4-chloro-2-[[(1S)-3-(methylamino)-2,3-dioxo-1-[[(3S)-2-oxopyrrolidin-3-yl]methyl]propyl]carbamoyl]phenyl]carbamate], the IC50 came out at 3.6 nM.
For `CNC(=O)C(=O)[C@H](C[C@@H]1CCNC1=O)NC(=O)c1cc(Cl)ccc1NC(=O)OC1CCC1` [Example 137, cyclobutyl N-[4-chloro-2-[[(1S)-3-(methylamino)-2,3-dioxo-1-[[(3S)-2-oxopyrrolidin-3-yl]methyl]propyl]carbamoyl]phenyl]carbamate], the IC50 amounted to 5.4 nM.
As to `CNC(=O)C(=O)[C@H](C[C@@H]1CCNC1=O)NC(=O)c1cc(Cl)ccc1NC(=O)OC1(C)CC1` [Example 138, (1-methylcyclopropyl) N-[4-chloro-2-[[(1S)-3-(methylamino)-2,3-dioxo-1-[[(3S)-2-oxopyrrolidin-3-yl]methyl]propyl]carbamoyl]phenyl]carbamate], the IC50 came out at 18.6 nM.
To `CCOC(=O)Nc1ccc(Cl)cc1C(=O)N[C@@H](C[C@@H]1CCNC1=O)C(=O)C(=O)NC1CC1` [Example 139] belongs 6.3 nM; to `CNC(=O)C(=O)[C@H](C[C@@H]1C[C@@H](C)NC1=O)NC(=O)c1cc(Cl)cnc1NC(=O)OC1CC1` [Example 140, cyclopropyl N-[5-chloro-3-[[(1S)-3-(methylamino)-1-[[(3S,5R)-5-methyl-2-oxo-pyrrolidin-3-yl]methyl]-2,3-dioxo-propyl]carbamoyl]-2-pyridyl]carbamate], 9.2 nM.
With `CNC(=O)C(=O)[C@H](C[C@@H]1C[C@@H](C)NC1=O)NC(=O)c1cc(F)c(F)cc1NC(=O)OC1CC1` [Example 141, cyclopropyl N-[4,5-difluoro-2-[[(1S)-3-(methylamino)-1-[[(3S,5R)-5-methyl-2-oxo-pyrrolidin-3-yl]methyl]-2,3-dioxo-propyl]carbamoyl]phenyl] carbamate] the figure was 19.8 nM; with `CNC(=O)C(=O)[C@H](C[C@@H]1CCNC1=O)NC(=O)c1cc(Cl)ccc1NC(=O)OC(C)(C)C` [Example 142, tert-butyl N-[4-chloro-2-[[(1S)-3-(methylamino)-2,3-dioxo-1-[[(3S)-2-oxopyrrolidin-3-yl]methyl]propyl]carbamoyl]phenyl]carbamate], 41.1 nM.
Regarding `CNC(=O)C(=O)[C@H](C[C@@H]1CCNC1=O)NC(=O)c1cc(Cl)ccc1NC(=O)[C@H]1CC1(F)F` [Example 143, 5-chloro-2-[[(1R)-2,2-difluorocyclopropanecarbonyl]amino]-N-[(1S)-3-(methylamino)-2,3-dioxo-1-[[(3S)-2-oxopyrrolidin-3-yl]methyl]propyl]benzamide], the IC50 came out at 3 nM.
To `CNC(=O)C(=O)[C@H](C[C@@H]1C[C@@H](C)NC1=O)NC(=O)c1cc(Cl)c(Cl)cc1NC(=O)OC` [Example 144, methyl N-[4,5-dichloro-2-[[(1S)-3-(methylamino)-1-[[(3S,5R)-5-methyl-2-oxo-pyrrolidin-3-yl]methyl]-2,3-dioxo-propyl]carbamoyl]phenyl] carbamate] belongs 5.3 nM.
As to `C[C@@H]1C[C@@H](C[C@H](NC(=O)c2cc(Cl)ccc2NC(=O)C2CC2)C(=O)C(=O)NC2CC2)C(=O)N1` [Example 145, 5-chloro-2-(cyclopropanecarbonylamino)-N-[(1S)-3-(cyclopropylamino)-1-[[(3S,5R)-5-methyl-2-oxo-pyrrolidin-3-yl]methyl]-2,3-dioxo-propyl]benzamide], the IC50 is 26.8 nM.
